Literature values as cited in patent US9738653B2, “Fused furans for the treatment of hepatitis C” (BRISTOL-MYERS SQUIBB COMPANY, priority 2013, dated 2017).

Tests used:
HCV [1] = details: combination therapy; cited from earlier work
HCV [2] = details: cited from earlier work

| Compound | sustained efficacy, patients (HCV [1]) | hepatic toxicity (HCV [2]; extended dosing of the combination regimens with interferon and ribavirin) | HCV RNA levels in patients (HCV [2]; patients, single agent) |
| --- | --- | --- | --- |
| alpha-interferon and ribavirin | 40% |  |  |
| CNC(=O)c1c(-c2ccc(F)cc2)oc2cc(N(CCO)S(C)(=O)=O)c(C3CC3)cc12 [HCV-796] |  | hepatic toxicity observed | showed an ability to reduce HCV RNA levels in patients |
